Non-standard residues stand in square brackets, D forms with d. No end group written: not given here. *: point of attachment. βGlc = OC[C@H]1O[C@@H](*)[C@H](O)[C@@H](O)[C@@H]1O; Tyr(3,5-I2) = N[C@@H](Cc1cc(I)c(O)c(I)c1)C(=O)O; Dap = NC[C@H](N)C(=O)O
Tested on: MCF-7 cells
Test: MCF-7 cell stimulation (cell growth) assay, cell counts by trypan blue exclusion
Format: cell-based, human
Conditions: for MCF-7 cell count increase: no leptin
Excerpt: For the evaluation of the biological activity of the synthesized leptin Site III peptide fragments, human cell lines were selected in which the ObR expression level is known. Two ObR-positive human cell models were used: MCF-7 breast cancer cells and DU-45 prostate cancer cells. Both cell lines express ObR, and leptin and leptin analogues stimulate their growth (C. Garofalo, et al., Clin. Cancer Res., 2004, 10, 6466-6475; C. Garofalo, et al., Clin. Cancer Res., 2006, 12, 1447-1453). Normal mammary epithelial MCF-10 cells lacking ObR were used as a negative control (X. Hu, et al., J. Natl. Cancer Inst., 2002, 94, 1704-1711).
Biological activity of the Site III peptides was assayed as follows. MCF-7 cells were stimulated with 6 nM full-sized leptin. The smaller leptin fragments and analogs were added to the cell culture at a concentration of 10 nM, 100 nM or 1 μM. Leptin at […] concentration stimulated MCF-7 cell growth by approximately 40%, in line with previous observations (C. Garofalo, et al., Clin. Cancer Res., 2004, 10, 6466-6475). All Site III peptides bound to the extracellular domain of ObR as documented by dot-blot or Western-blot analysis. […] In fact, it reversed leptin induced stimulation of MCF-7 cells at as low as 10 nM peptide concentration, with an additional 50% reduction in cell counts at 1 μM. When the assay was run at a more reliably measurable 1 μM peptide concentration, a consistent 6% decrease in cell numbers could be observed compared to the leptin only samples. In summary, in the presence of exogenously added full-sized leptin these assays verified the strong antagonist activity of the Site III Ala,Ala mutant.
The cell stimulation activity of the Site III peptides was assayed as follows. Human leptin was purchased from R&D Systems and used at a concentration of 100 ng/mL (approximately 6 nM). MCF-7 and DU-45 cells naturally expressing ObR were grown in a standard medium DMEM:F12 plus 5% fetal bovine serum. MCF-10 was grown in serum-free mammalian epithelial growth medium supplemented with 100 ng/mL cholera toxin. Seventy percent confluent cultures were synchronized in serum-free medium (DMEM plus 10 μM FeSO4, plus 0.5% albumin) for 24 h and then treated with leptin and/or peptides (different doses) for 5 days. Cell counts before and after treatment were determined by counting the cells using trypan blue exclusion. All assays were conducted in triplicate and repeated at least twice.

Tyr(I2)-Serβ(Glc)-Thr-Glu-Va1-Va1-Ala-Leu-Ser-Arg-Leu-Dap(Ac) ([Tyr(3,5-I2)]S(βGlc)TEVVALSRL[Dap](Ac)-NH2) [E1Free]
MCF-7 cell count increase (100 nM peptide): 81% | further increase of leptin-induced cell stimulation (1000 nM peptide, in the presence of 6 nM leptin): 84% | MCF-7 cell count increase (1000 nM peptide): 114% | overall agonist character on cells expressing ObR (in the presence and absence of leptin): full agonists
